# Experimental data from ChEMBL document CHEMBL3507680, “University of Dundee, Gates Library screen for HepG2 cell viability”.
# Test: Human HepG2 cell viability assay in 384 well format
# Assay type: toxicity, cell-based
# Parameters: dose 125 nL, time 70.5 hour; cytotoxicity at 70.5 h: concentration not given beside the values
# Settings: HepG2 cells, read-out: Inhibition
row,Compound,cytotoxicity at 70.5 h
1,CS(=O)(=O)N1CCOCC2(CCN(c3cnccn3)CC2)C1,-7.29%
2,COc1c(CNCc2ccc(N3CCOCC3)cc2)c(C)nn1C,-9.85%
3,CN(C)C(=O)N1C[C@H]2CC[C@@H]1CN(C1Cc3ccccc3C1)C2,-9.42%
4,O=C(C1CCCC1)N1C[C@@H]2CCN(c3cccnc3)C[C@@H]2C1,-11.4%
5,COc1ccccc1C(=O)N1CCN(C(=O)Cc2ccccn2)CC1,-6.85%
6,COCCN1C[C@@H](C)[C@@]2(COCCN(C(=O)c3ccncc3)C2)C1,-3.32%
7,COc1cccc(CNC(=O)c2nc3c(s2)CCN(C(C)=O)CC3)c1,-11%
8,Cc1cccc(CN2CCC3(CCCN(C(=O)c4ccsc4)C3)C2=O)n1 (configuration not stated),5.46%
9,CC(C)c1nnc2n1CCN(C(=O)c1ccc3cc[nH]c3c1)C2,2.26%
10,COC(=O)CN(Cc1ccccc1C)C(=O)CCNC(=O)C(C)(C)C,-6.72%
11,Cc1ccccc1CN1CCCN(S(=O)(=O)N(C)C2CCCCC2)CC1,-7.92%
12,O[C@@H]1CCN(CC2CC2)[C@H]1Cc1ccccc1,-23%
13,COCC1c2nnn(CC3CC3)c2CCN1C(=O)C1CCOCC1 (configuration not stated),-11.4%
14,Cc1cnn(CCNCC(O)c2cccc(Br)c2)c1 (configuration not stated),-8.97%
15,CN1C(=O)COc2ccc(C(=O)Cn3cnc4ccsc4c3=O)cc21,17.1%
16,NC1CCCCN(Cc2cc(C3CCCCC3)no2)C1 (configuration not stated),-7.91%
17,COCC(=O)NC1CC2(CCN(CCF)CC2)Oc2ccccc21 (configuration not stated),-10.9%
18,Cc1nn(C)c(N(C)C)c1CNC1CCc2c(Cl)cccc21 (configuration not stated),-1.83%
19,CCOC(=O)C1(CCOC)CCN(Cc2nccn2CC)CC1,-7.56%
20,O=C(NCc1nnc2n1CCC2)NCC1(c2cccc(F)c2)CC1,-5.65%
21,CS(=O)(=O)N(Cc1ccon1)c1cccc(Br)c1,-1.5%

row,Compound,cytotoxicity at 70.5 h
1,O=C(c1cccc2cccnc12)N1CCCN(c2cccnn2)CC1,-10.5%
2,CC(C)c1ncncc1C(=O)N1CCCN(Cc2cccs2)CC1,-18.9%
3,COCCS(=O)(=O)Cc1nnnn1-c1ccccc1,-2.53%
4,COCCC(=O)N1CCC2(CC1)CN(S(C)(=O)=O)Cc1ccccc1O2,-2.27%
5,c1cc(-c2ccc3c(c2)CCC32CCNCC2)ccn1,26.1%
6,CC(C)(C)n1ncc2c1CCCC2NCc1ccsc1 (configuration not stated),-0.727%
7,O=C1CCC2(CCOC2)CN1Cc1nncn1CCc1ccccc1 (configuration not stated),4.96%
8,O=C(CC1CC1)N1C[C@H]2CCN[C@H]2C1,-4.97%
9,CCc1nnsc1C(=O)N1CCOC(c2nc(C)n[nH]2)C1 (configuration not stated),1.73%
10,Cc1cc(C)nc(N2CCOC(c3cc(CCO)[nH]n3)C2)n1 (configuration not stated),-8.46%
11,Cc1ccc(NC(=O)NC(C)c2nc[nH]n2)cc1Cl (configuration not stated),-3.17%
12,CCc1nnc(NC(=O)CCN2CC=C(c3cnn(C)c3)CC2)s1,-7.5%
13,O=C(CCn1cccn1)N1CCSCC1,-4.39%
14,O=C(c1cccc(S(=O)(=O)NCCCn2cccn2)c1)N1CCOCC1,-1.43%
15,CCc1nc(C2CCCN2CC(=O)Nc2c(C)n[nH]c2C)no1 (configuration not stated),5.42%
16,CCC(=O)N1CCN(c2nc(C)nc3c(C)nn(C)c23)CC1,-6.94%
17,FC1(F)CCN(c2ccccc2)CC12CCN(c1ncccn1)C2 (configuration not stated),-1.34%
18,Cc1nnsc1C(=O)NCc1cccnc1N(C)Cc1ccccc1,-7.67%
19,Fc1ccccc1Cn1c(C2CCNCC2)cc2cccnc21,-4.77%
20,Cc1nn(CCC(=O)NC2CCS(=O)(=O)C2)c(C)c1Br (configuration not stated),-0.845%
21,COCCNC(=O)Cn1cc(OCc2ccccc2F)c(=O)cc1CO,45.6%

row,Compound,cytotoxicity at 70.5 h
1,Cc1ccc(C(=O)NC(C)Cn2cccn2)c(=O)[nH]1 (configuration not stated),8.15%
2,CC(=O)N1CCOC(CNC(=O)c2cccc(CCC(C)(C)O)c2)C1 (configuration not stated),8.87%
3,CCn1cnnc1CNC(=O)N1CCN(Cc2ccsc2)CC1,2.69%
4,CC(C)N1CCC(c2nnc(CN3CCCC3)n2C2CC2)CC1,-4.86%
5,Cc1cccnc1C(Nc1nccc(C2CCCC2)n1)C1CC1 (configuration not stated),0.357%
6,CSCCN(C)Cc1ccc(F)cc1C#N,-4.74%
7,Cc1nc(C(=O)N2CCCC2c2noc(C3CC3)n2)c[nH]1 (configuration not stated),-0.671%
8,O=S1(=O)c2cccnc2OC(Cc2ccccc2)CN1CC1CC1 (configuration not stated),1.6%
9,CC(C)c1nnc(NC(=O)CCC(=O)NCC2CCCO2)s1 (configuration not stated),-12.5%
10,CC(C)c1nc(CN(C)C(=O)c2ccc3c(c2)OCC(=O)N3)cs1,-6.75%
11,CN(C)CCN1CCCC12CCN(C(=O)c1ccoc1)CC2,-9.15%
12,COCCN(Cc1nc2c(cnn2C)c(=O)[nH]1)Cc1ccco1,-7.8%
13,Cc1cccc(C(C(=O)NCCc2nc(C)cc(=O)[nH]2)N(C)C)c1 (configuration not stated),25.6%
14,CN(C)S(=O)(=O)CCCN1CCCC1c1noc(C2CC2)n1 (configuration not stated),22.8%
15,O=C(CN1C(=O)CCC1=O)NCCc1nc(C2CC2)cc(C(F)(F)F)n1,31.4%
16,Cc1ccc(CN2CC3(CCN(C(=O)C4CC4)CC3)CC2C(=O)O)o1 (configuration not stated),-2.54%
17,Cc1nccc(N[C@H]2CN(CCS(C)(=O)=O)C[C@@H]2C2CC2)n1,18.1%
18,CC(CN1CCOC1=O)NC(=O)c1cccc2cc[nH]c12 (configuration not stated),-3.45%
19,Cc1cccc(Cc2nc3c([nH]2)CCCNC3=O)c1,-5.33%
20,Cc1n[nH]c(SCC(=O)N2C[C@H]3CC[C@@H]2CN(c2ncccn2)C3)n1,-4.86%
21,Cc1ccc(N2CC[C@H]3O[C@H](C(=O)N4CCCCO4)CC[C@H]32)nn1,-3.7%

row,Compound,cytotoxicity at 70.5 h
1,COCCN(Cc1ccoc1)S(=O)(=O)c1ccc(F)c(C)c1,-11%
2,O=C(Nc1ccccc1OCCc1ccccn1)N1CCOCC1,-13.5%
3,CN1CCN(CCNC(=O)C(OC2CCCC2)c2ccccc2)CC1 (configuration not stated),5.3%
4,O=C(c1cnccn1)N1C[C@@H](c2ccccc2)[C@@]2(CCNC2=O)C1,-4.45%
5,CCn1ccc(NC(=O)CCc2c(C)noc2C)n1,-7.45%
6,CCc1cnc(CN(C(C)=O)C2CCN(CCN3CCCCC3)C2)o1 (configuration not stated),-3.61%
7,C/C(NC(=O)c1ccccn1)=C1\C(=O)C[C@@H]2[C@H]1C2(C)C,-2.07%
8,NCC(=O)N1CCC(c2cccc(Oc3ccccc3)n2)CC1,-7.22%
9,Cc1occc1C(=O)N1CCCC2(CCN(c3ccccc3)C2=O)C1 (configuration not stated),12.9%
10,CC(=O)N1CCc2c(nc(N(C)C)nc2N(C)CCO)C1,-2.49%
11,Cc1ccc(C(=O)Nc2ccn(CCC(N)=O)n2)cc1,-3.18%
12,CCC(=O)N1CCc2nc(N3CCOCC3)nc(N(C)C)c2CC1,35.1%
13,Cc1nc(C)n(CC2CN(CCOc3ccccc3F)CCO2)n1 (configuration not stated),-10.8%
14,COc1ccc(C(=O)C2CCCN(c3cnccn3)C2)c(C)c1 (configuration not stated),-8.1%
15,Cc1cnn(CC2CCCCN2C(=O)c2nccnc2N)c1 (configuration not stated),-4.52%
16,Cc1oc(-c2ccsc2)nc1CC(=O)NCCCS(C)(=O)=O,15.4%
17,CC1(C)CN=C(N2CCN(CC3CCCO3)CC2)S1 (configuration not stated),-7.36%
18,O=C(c1cccn2ccnc12)N1CCCN(c2cccnn2)CC1,-20.2%
19,CC(CN1CCN(C)CC1)NC(=O)c1cc(Cl)c2c(c1)OCO2 (configuration not stated),-0.705%
